# Results: ChEMBL document CHEMBL5665443, “Enzyme Inhibitor Single Concentration assay results for EUbOPEN Chemogenomics Library” (2024)
# Legend:
# [1] = biological target: N-glycosylase/DNA lyase (Homo sapiens) (UniProt O15527); settings: Hit No;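 note: OGG1 cleavage of a quenched duplex DNA oligonucleotide, coupled to APE1 for strand incision, read as fluorescence at 594 nm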
# Description: Inhibition of OGG1 by quantifying inhibition of OGG1-mediated cleavage and dissociation of quenched duplex DNA oligonucleotides, measured as fluorescence at 594 nm. To generate a functional strand incision and increase turn-over this assay is coupled to APE1.
# [2] = biological target: Uracil-DNA glycosylase (Homo sapiens) (UniProt P13051); settings: Hit No;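 note: UNG excision on a quenched double-stranded DNA oligo probe, with APE1 added for strand incision and turnover, read as fluorescence at 594 nm as strands separate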
# Chain of Uracil-DNA glycosylase (Homo sapiens) (P13051 whole entry): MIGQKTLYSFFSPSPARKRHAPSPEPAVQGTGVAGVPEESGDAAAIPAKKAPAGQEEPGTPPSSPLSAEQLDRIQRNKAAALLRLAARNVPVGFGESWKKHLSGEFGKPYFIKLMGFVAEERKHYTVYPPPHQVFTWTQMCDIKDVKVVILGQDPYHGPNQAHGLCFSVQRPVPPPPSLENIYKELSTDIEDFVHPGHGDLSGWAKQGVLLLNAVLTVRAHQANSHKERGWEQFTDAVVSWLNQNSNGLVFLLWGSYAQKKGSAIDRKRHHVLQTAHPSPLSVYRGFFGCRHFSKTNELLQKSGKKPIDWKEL
# Description: Inhibition of UNG by quantifying inhibition of UNG-mediated cleavage and dissociation of quenched duplex DNA oligonucleotides, measured as fluorescence at 594 nm. To generate a functional strand incision and increase turn-over this assay is coupled to APE1.
# [3] = biological target: Endonuclease 8-like 1 (Homo sapiens) (UniProt Q96FI4); settings: Hit No;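 note: fluorescence at 594 nm from quenched duplex DNA oligonucleotides released by NEIL1 cleavage and strand separation, reported as reduction of this enzyme activity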
# Chain of Endonuclease 8-like 1 (Homo sapiens) (Q96FI4 whole entry): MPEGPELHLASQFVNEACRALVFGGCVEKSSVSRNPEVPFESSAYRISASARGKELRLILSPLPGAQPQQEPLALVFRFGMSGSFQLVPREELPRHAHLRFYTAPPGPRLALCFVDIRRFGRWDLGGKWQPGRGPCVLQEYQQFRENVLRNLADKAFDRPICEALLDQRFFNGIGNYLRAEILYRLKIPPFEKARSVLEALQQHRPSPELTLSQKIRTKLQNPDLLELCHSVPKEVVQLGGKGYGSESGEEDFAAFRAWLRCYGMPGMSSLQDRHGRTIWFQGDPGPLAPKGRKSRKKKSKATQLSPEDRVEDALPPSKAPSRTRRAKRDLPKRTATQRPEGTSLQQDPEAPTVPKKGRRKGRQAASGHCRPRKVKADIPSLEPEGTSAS
# Description: Inhibition of NEIL1 by quantifying inhibition of NEIL1-mediated cleavage and dissociation of quenched duplex DNA oligonucleotides, measured as fluorescence at 594 nm.
# [4] = biological target: T1, Adenine DNA glycosylase (Homo sapiens) (UniProt Q9UIF7); settings: Hit No;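 note: human MUTYH activity read as 594 nm fluorescence from cleavage and release of a quenched DNA duplex, coupled with APE1 for strand incision, lower signal meaning inhibition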
# T1 sequence (whole entry): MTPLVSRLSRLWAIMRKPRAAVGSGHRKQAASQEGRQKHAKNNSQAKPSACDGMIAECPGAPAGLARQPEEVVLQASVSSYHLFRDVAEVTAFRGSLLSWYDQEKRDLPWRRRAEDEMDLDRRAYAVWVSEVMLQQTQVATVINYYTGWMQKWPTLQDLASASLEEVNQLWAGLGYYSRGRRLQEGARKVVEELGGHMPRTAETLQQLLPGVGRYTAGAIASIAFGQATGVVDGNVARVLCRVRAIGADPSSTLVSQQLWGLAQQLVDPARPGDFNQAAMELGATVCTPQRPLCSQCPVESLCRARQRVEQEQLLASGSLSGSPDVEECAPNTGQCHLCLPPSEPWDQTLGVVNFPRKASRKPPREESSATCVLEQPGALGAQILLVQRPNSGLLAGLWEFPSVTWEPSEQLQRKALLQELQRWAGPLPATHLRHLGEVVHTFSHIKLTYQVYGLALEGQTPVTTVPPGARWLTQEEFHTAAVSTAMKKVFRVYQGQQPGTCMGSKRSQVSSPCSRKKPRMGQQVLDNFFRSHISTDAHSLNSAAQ
# Description: Inhibition of MUTYH by quantifying inhibition of MUTYH-mediated cleavage and dissociation of quenched duplex DNA oligonucleotides, measured as fluorescence at 594 nm. To generate a functional strand incision and increase turn-over this assay is coupled to APE1.
# [5] = biological target: T2, Single-strand selective monofunctional uracil DNA glycosylase (Homo sapiens) (UniProt Q53HV7); settings: Hit No;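 note: enzymatic SMUG1 assay coupled with APE1, reading fluorescence at 594 nm released when a quenched double-stranded DNA oligonucleotide substrate is cleaved and separated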
# T2 sequence (whole entry): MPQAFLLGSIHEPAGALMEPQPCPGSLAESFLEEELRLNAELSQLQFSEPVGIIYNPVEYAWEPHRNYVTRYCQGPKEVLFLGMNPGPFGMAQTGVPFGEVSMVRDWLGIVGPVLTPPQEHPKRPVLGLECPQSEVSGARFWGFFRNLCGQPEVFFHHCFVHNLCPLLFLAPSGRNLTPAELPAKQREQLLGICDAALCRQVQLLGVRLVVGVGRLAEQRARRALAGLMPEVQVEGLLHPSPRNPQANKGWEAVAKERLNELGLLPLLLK
# Description: Inhibition of SMUG1 by quantifying inhibition of SMUG1-mediated cleavage and dissociation of quenched duplex DNA oligonucleotides, measured as fluorescence at 594 nm. To generate a functional strand incision and increase turn-over this assay is coupled to APE1.
# [6] = biological target: Methyl-CpG-binding domain protein 4 (Homo sapiens) (UniProt O95243); settings: Hit No;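 note: MBD4 activity read as fluorescence at 594 nm from cleavage and release of a quenched duplex DNA oligonucleotide, with APE1 coupled to incise the strand and raise turnover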
# Chain of Methyl-CpG-binding domain protein 4 (Homo sapiens) (O95243 whole entry, the tested form may be a part): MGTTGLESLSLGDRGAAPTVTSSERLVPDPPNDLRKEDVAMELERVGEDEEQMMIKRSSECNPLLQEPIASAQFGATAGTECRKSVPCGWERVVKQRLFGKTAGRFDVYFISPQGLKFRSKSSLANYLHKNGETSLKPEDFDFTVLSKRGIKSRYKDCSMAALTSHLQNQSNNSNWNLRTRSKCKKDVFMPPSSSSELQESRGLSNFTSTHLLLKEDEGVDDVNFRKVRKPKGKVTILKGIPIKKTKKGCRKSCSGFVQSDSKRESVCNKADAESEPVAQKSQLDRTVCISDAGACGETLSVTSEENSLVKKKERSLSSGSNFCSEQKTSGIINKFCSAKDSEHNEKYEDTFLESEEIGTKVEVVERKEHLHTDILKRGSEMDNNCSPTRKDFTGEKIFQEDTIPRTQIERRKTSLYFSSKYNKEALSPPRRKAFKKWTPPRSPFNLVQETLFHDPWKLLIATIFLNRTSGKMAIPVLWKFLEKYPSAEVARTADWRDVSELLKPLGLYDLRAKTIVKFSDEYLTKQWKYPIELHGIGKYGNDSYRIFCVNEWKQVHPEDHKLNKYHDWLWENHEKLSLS
# Description: Inhibition of MBD4 by quantifying inhibition of MBD4-mediated cleavage and dissociation of quenched duplex DNA oligonucleotides, measured as fluorescence at 594 nm. To generate a functional strand incision and increase turn-over this assay is coupled to APE1.
# [7] = biological target: T3, Endonuclease 8-like 2 (Homo sapiens) (UniProt Q969S2); settings: Hit No;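 note: fluorescence at 594 nm reports NEIL2 cutting and release of a quenched double-stranded DNA oligo substrate, reduced signal read as inhibition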
# T3 sequence (whole entry): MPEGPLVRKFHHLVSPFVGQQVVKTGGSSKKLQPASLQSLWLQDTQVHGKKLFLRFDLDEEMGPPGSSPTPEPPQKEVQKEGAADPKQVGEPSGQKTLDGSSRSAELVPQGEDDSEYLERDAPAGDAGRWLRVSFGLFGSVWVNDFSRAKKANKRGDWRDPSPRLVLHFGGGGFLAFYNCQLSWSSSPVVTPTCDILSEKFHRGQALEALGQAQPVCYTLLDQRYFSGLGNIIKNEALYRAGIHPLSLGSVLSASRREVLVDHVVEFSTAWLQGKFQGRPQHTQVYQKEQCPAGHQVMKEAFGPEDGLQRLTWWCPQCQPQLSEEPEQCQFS
# Description: Inhibition of NEIL2 by quantifying inhibition of NEIL2-mediated cleavage and dissociation of quenched duplex DNA oligonucleotides, measured as fluorescence at 594 nm.
# [8] = biological target: G/T mismatch-specific thymine DNA glycosylase (Homo sapiens) (UniProt Q13569); settings: Hit No;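 note: human TDG cleavage of quenched duplex DNA oligonucleotides coupled to APE1, strand release read as fluorescence at 594 nm, inhibition of TDG activity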
# Chain of G/T mismatch-specific thymine DNA glycosylase (Homo sapiens) (Q13569 whole entry): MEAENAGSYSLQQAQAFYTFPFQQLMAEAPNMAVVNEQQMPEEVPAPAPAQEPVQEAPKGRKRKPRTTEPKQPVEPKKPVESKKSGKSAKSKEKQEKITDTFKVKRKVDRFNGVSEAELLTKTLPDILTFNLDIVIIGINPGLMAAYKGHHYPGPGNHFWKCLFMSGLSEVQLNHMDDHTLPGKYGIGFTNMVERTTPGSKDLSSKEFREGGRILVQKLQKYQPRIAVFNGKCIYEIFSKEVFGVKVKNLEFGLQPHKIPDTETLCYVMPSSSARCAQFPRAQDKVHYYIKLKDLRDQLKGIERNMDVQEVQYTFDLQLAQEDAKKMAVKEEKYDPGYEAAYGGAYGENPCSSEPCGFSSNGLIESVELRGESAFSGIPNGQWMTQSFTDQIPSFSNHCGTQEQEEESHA
# Description: Inhibition of TDG by quantifying inhibition of TDG-mediated cleavage and dissociation of quenched duplex DNA oligonucleotides, measured as fluorescence at 594 nm. To generate a functional strand incision and increase turn-over this assay is coupled to APE1.
# [9] = biological target: T4, Endonuclease III-like protein 1 (Homo sapiens) (UniProt P78549);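 note: enzyme assay tracking NTHL1 cutting and release of a quenched double-stranded DNA oligo substrate, read as fluorescence at 594 nm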
# T4 sequence (whole entry): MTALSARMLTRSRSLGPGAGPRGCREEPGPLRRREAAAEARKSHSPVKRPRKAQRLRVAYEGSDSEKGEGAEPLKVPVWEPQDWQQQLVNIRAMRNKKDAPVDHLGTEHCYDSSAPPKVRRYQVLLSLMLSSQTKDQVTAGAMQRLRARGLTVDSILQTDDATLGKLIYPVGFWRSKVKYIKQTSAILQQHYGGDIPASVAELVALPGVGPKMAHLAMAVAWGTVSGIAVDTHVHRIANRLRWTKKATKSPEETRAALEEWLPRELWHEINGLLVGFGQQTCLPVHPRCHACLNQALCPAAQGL
# Description: Inhibition of NTHL1 by quantifying inhibition of NTHL1-mediated cleavage and dissociation of quenched duplex DNA oligonucleotides, measured as fluorescence at 594 nm.
# [10] = Compound Concentration 10.0 uM, Hit No
# [11] = Compound Concentration 1.0 uM, Hit No
# Chain of N-glycosylase/DNA lyase (Homo sapiens) (O15527 whole entry): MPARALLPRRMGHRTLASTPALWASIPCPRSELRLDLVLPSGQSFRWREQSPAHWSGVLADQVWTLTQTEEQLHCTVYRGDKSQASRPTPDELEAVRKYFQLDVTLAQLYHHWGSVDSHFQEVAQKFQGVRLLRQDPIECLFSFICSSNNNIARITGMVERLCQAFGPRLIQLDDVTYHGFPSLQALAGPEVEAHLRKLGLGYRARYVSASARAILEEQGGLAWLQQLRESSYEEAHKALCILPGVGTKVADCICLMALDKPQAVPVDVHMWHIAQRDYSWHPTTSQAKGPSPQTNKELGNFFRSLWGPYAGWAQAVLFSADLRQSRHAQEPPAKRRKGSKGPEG
Structure (SMILES),inhibition ([1]; Compound Concentration 10.0 uM) [%],inhibition ([2]; Compound Concentration 10.0 uM) [%],inhibition ([3]; Compound Concentration 10.0 uM) [%],inhibition ([4]; Compound Concentration 10.0 uM) [%],inhibition ([5]; Compound Concentration 10.0 uM) [%],inhibition ([6]; Compound Concentration 10.0 uM) [%],inhibition ([7]; Compound Concentration 10.0 uM) [%],inhibition ([8]; Compound Concentration 10.0 uM) [%],"inhibition [9, 10] [%]",inhibition ([1]; Compound Concentration 1.0 uM) [%],inhibition ([2]; Compound Concentration 1.0 uM) [%],inhibition ([3]; Compound Concentration 1.0 uM) [%],inhibition ([4]; Compound Concentration 1.0 uM) [%],inhibition ([5]; Compound Concentration 1.0 uM) [%],inhibition ([6]; Compound Concentration 1.0 uM) [%],inhibition ([7]; Compound Concentration 1.0 uM) [%],inhibition ([8]; Compound Concentration 1.0 uM) [%],"inhibition [9, 11] [%]","inhibition ([9]; Compound Concentration 10.0 uM, Hit Yes) [%]"
CCOC(=O)C1Cc2ccccc2CN1C(=O)c1ccc(SC)s1 (centres undefined),13.5,0.734,-1.35,-2.13,19.5,59.4,4.36,98.9,1.34,,,,,,,,,,
CN1CCN(c2ccnc(NCCc3ccccc3)n2)CC1,9.82,6.53,2.13,16.7,8.97,69,14.1,50.4,-9.83,,,,,,,,,,
CN(CCOc1ccc(C[C@H](Nc2ccccc2C(=O)c2ccccc2)C(=O)O)cc1)c1ccccn1,24.7,-0.00636,5.16,-3.55,8.44,67,4.36,30.8,-4.57,,,,,,,,,,
CO[C@H]1/C=C/O[C@@]2(C)Oc3c(C)c(O)c4c(O)c(c(/C=N/N5CCN(C)CC5)c(O)c4c3C2=O)NC(=O)/C(C)=C\C=C\[C@H](C)[C@H](O)[C@@H](C)[C@@H](O)[C@@H](C)[C@H](OC(C)=O)[C@@H]1C,23.7,20,-4.08,34.5,26.1,74.6,-0.744,64,,,,,,,,,,,27.6
C=CC(=O)Nc1ccc2[nH]c(=O)n(C3CCN(Cc4ccc(-c5nc6cc[nH]c(=O)c6cc5-c5ccccc5)cc4)CC3)c2c1,49.4,4.17,3.12,23.4,25.8,24,4.67,49,2.5,,,,,,,,,,
O[C@]1(C(F)(F)F)CCCC[C@H]1Nc1ccc(F)cc1,,,,,,,,,,-4.39,2.12,3.35,-4.37,15.6,54.7,6.91,46.6,4.63,
O=C(N[C@@H]1C2CCN(CC2)[C@H]1Cc1cccnc1)c1cc2ccccc2o1,-7.23,-1.31,5.2,-1.82,-7.47,-7.25,1.94,-0.849,27.8,,,,,,,,,,

# The next lines start with the values.
inhibition ([1]; Compound Concentration 10.0 uM) [%],inhibition ([2]; Compound Concentration 10.0 uM) [%],inhibition ([3]; Compound Concentration 10.0 uM) [%],inhibition ([4]; Compound Concentration 10.0 uM) [%],inhibition ([5]; Compound Concentration 10.0 uM) [%],inhibition ([6]; Compound Concentration 10.0 uM) [%],inhibition ([7]; Compound Concentration 10.0 uM) [%],inhibition ([8]; Compound Concentration 10.0 uM) [%],"inhibition [9, 10] [%]",inhibition ([1]; Compound Concentration 1.0 uM) [%],inhibition ([2]; Compound Concentration 1.0 uM) [%],inhibition ([3]; Compound Concentration 1.0 uM) [%],inhibition ([4]; Compound Concentration 1.0 uM) [%],inhibition ([5]; Compound Concentration 1.0 uM) [%],inhibition ([6]; Compound Concentration 1.0 uM) [%],inhibition ([7]; Compound Concentration 1.0 uM) [%],inhibition ([8]; Compound Concentration 1.0 uM) [%],"inhibition [9, 11] [%]","inhibition ([9]; Compound Concentration 10.0 uM, Hit Yes) [%]",Structure (SMILES)
12,3.71,0.798,10.5,20.9,-6.46,2.93,50.8,-1.31,,,,,,,,,,,Cc1cc([C@@H](C)Nc2ccccc2C(=O)O)c2nc(N3CCOCC3)cc(=O)n2c1
-8.63,12.3,-3.56,18.6,19.5,17.2,2.66,59.4,1.48,,,,,,,,,,,CCOc1cc(N2CCC(O)CC2)ccc1Nc1ncc2c(n1)N(C)c1ccccc1C(=O)N2C
,,,,,,,,,-1.52,0.321,-0.0491,-1.13,10.6,27.9,-2.03,41.5,7.17,,CS(=O)(=O)N1CCCC(NC(=O)[C@H](CCC2CCCCC2)NC(=O)c2ccc(CNC(=O)c3cnc4ccccn34)cc2)C1 (some centres undefined)
18.3,5.72,-3.02,4.92,27.6,66.8,3.08,46.7,-1.95,,,,,,,,,,,CC(C)OC(=O)C1=CN(C(=O)c2ccc(F)c(F)c2)CC(C)(C)c2c1[nH]c1ccccc21
13.1,3.21,-6.2,-3.98,14.7,57.2,-9.93,98.8,-5.89,,,,,,,,,,,C[C@@]1(Cc2ccc(C#N)cc2)C(=O)N(c2cc(Cl)cc(Cl)c2)c2ncc(C(=O)NC3(c4nc(C5CCC5)no4)CC3)n21
6.08,3.82,-6.95,5.63,9.42,67.5,-3.29,47.2,3.97,,,,,,,,,,,COc1ccc2c(c1)O[C@H](c1ccc(OC)c(OC)c1)C[C@@H]2NC(=O)C1(c2ccc3c(c2)OC(F)(F)O3)CC1
27.8,5.57,-3.17,14.4,16.9,58.8,-6.36,100,2.66,,,,,,,,,,,CC1(C)CCC(C)(C)c2cc(C(=O)Nc3ccc(C(=O)O)cc3)ccc21
31.6,0.0471,-4.53,0.879,7.75,58.9,4.36,47.2,1.34,,,,,,,,,,,CC1(C)CCC(C)(C)c2cc(NC(=O)c3ccc(C(=O)O)cc3)ccc21
,,,,,,,,,5,0.688,-9.83,-1.09,4.46,55.1,-1.25,35.8,-3.26,,CC(C)CC(=O)N1CCc2nc(-c3ccc(Br)cc3)nc(N(C)Cc3ccccc3)c2C1
